Laboratory results published in publication PMC5327789 (Journal of natural products, 2016).
pIC50: −log10 of the molar value.

Assays:
[1] = system: WI-38 cell line (normal embryonic lung tissue); assay type: cell-based
[2] = system: P. falciparum strain Dd2 (chloroquine-resistant); experiment: P. falciparum in vitro growth inhibition assay; assay type: cell-based, Plasmodium falciparum; details: for antiplasmodial activity in words: highest concentration tested 25 μM

COC(=O)/C(C)=C1\C(=O)[C@H](O)[C@]2(C)C3=C(C[C@@H]4[C@]5(OC(=O)C6=C5C[C@H]5[C@](O)(COC(=O)/C(C)=C/COC(=O)[C@@H](O)CC(=O)OC6)[C@H]6C[C@H]6[C@]45C)[C@H]31)[C@H]1C[C@H]12 [Compound 29, shizukaol G]
increase of toxicity toward mammalian cells compared with counterpart ([1]; human, 24 h): ~ 10 fold

COC(=O)CCC(=O)OC/C(C)=C/C(=O)OC[C@]1(O)[C@H]2C[C@H]2[C@]2(C)[C@@H]3C[C@@]4(OO)C5=C(/C(=C(\C)C(=O)OC)C(=O)[C@H](O)[C@@]5(C)[C@@H]5C[C@@H]54)[C@@]34OC(=O)C(CO)=C4C[C@@H]12 [Compound 4, Fortunilide D]
increase of toxicity toward mammalian cells compared with counterpart ([1]; human, 24 h): 6 fold

shizukaol C [Compound 17]
pIC50 ([1]; read-out: WI-38 IC50, WI-38 cell line, 24 h incubation): 6.11 | pIC50 ([2]; read-out: P. falciparum IC50, Table 6): 7.68

COC(=O)/C(C)=C1\C(=O)[C@H](O)[C@]2(C)C3=C(C[C@@H]4[C@]5(OC(=O)C(C)=C5C[C@H]5[C@H](COC(C)=O)[C@H]6C[C@H]6[C@]45C)[C@H]31)[C@H]1C[C@H]12 [Compound 25, shizukaol E]
antiplasmodial activity in words [2]: micromolar range

C/C=C(\C)C(=O)OC[C@]1(O)[C@H]2C[C@H]2[C@]2(C)[C@@H]3C[C@@]4(O)C5=C(/C(=C(\C)C(=O)OC)C(=O)[C@H](O)[C@@]5(C)[C@@H]5C[C@@H]54)[C@@]34OC(=O)C(COC(C)=O)=C4C[C@@H]12 [Compound 27, sarcandrolide E]
antiplasmodial activity in words [2]: inactive

COC(=O)/C(C)=C1/C(=O)[C@H](O)[C@]2(C)C3=C(C[C@@H]4[C@]5(OC(=O)C6=C5C[C@H]5[C@](O)(COC(=O)/C=C(\C)COC(=O)CCC(=O)OC6)[C@H]6C[C@H]6[C@]45C)[C@H]31)[C@H]1C[C@H]12 [Compound 7, Fortunilide G]
decrease of mammalian cytotoxicity compared with counterpart ([1]; human, 24 h): 5 fold

C=C1[C@@H]2C[C@@H]2[C@]2(C)[C@@H]3CC4=C5[C@H](/C(=C(\C)C(=O)OC)C(=O)[C@H](O)[C@@]5(C)[C@@H]5C[C@H]45)[C@@]34OC(=O)C(C)=C4C[C@@H]12 [Compound 32, shizukaol A]
antiplasmodial activity in words [2]: micromolar range
